Reference: patent US20080286393A1, “Method for the enrichment of the polyphenolic contents from unripe fruit rinds of Terminalia belerica and uses thereof” (priority 2007, published 2008)

How the values were obtained:
[1] = Anti-oxidant activity: DPPH scavenging; conditions: FIG. 5
Protocol: (§1) The antioxidant activity of the light-colored, enriched/concentrated (85%-100%) polyphenolic extract from the dried, unripe fruit rinds of Terminalia belerica was assayed by diphenylpicrylhydrazyl (DPPH), Oxygen Radical Absorption (or Absorbance) Capacity (ORAC) and the hydroxyl radical Absorption (or Absorbance) capacity (HORAC) studies, as per the validated procedures documented in Cosmetics and toiletries. Cosmeceuticals: Jang D I, Lee B J, Jeon C O, Jo N S, Park J H, Cho S Y, Lee H, Koh J S. 1998, J. Agric. Food Chem. (2001), 49, 4619-4626 and J. Agric. Food. Chem. (2002), 50, 2772-2777.)

[2] = Oxygen Radical Absorption (or Absorbance) Capacity (ORAC); conditions: FIG. 6
Protocol: as §1, with “[…] The ORAC value of the light-colored, enriched/concentrated (85%-100%) polyphenolic extract from the dried, unripe fruit rinds of Terminalia belerica was 6237±640 μMol trolox equivalents/gram while the ORAC value of Vitamin C was 3400 μMol trolox equivalents/gram and that of grape seed extract was 4528 μMol trolox equivalents/gram.” for “Chem. (2002), 50, 2772-2777.)”

SMILES: O=C1O[C@H]([C@@H](O)CO)C(O)=C1O [Vitamin C]
- SC50 scavenging activity [1]: 1.9 µg/mL
- ORAC value [2]: 3400 μMol trolox equivalents/gram

SMILES: Cc1cc(C(C)(C)C)c(O)c(C(C)(C)C)c1 [BHT, Butylated hydroxyl toluene]
- SC50 scavenging activity [1]: 4.6 µg/mL
